Patent EP4606376A1 (ShanghaiTech University, priority 2022, dated 2024)

Key:
TMPRSS2 = TMPRSS2 (Homo sapiens, UniProt O15393); assay: In vitro enzyme activity inhibition assay (TMPRSS2, substrate Boc-Gln-Ala-Arg-AMC); settings: cross-validation; FIG. 2B
Protocol: (§1) Columns 15 to 20 were added with an equivalent volume of DMSO as a positive control group, and columns 18 to 20 were added with an equivalent volume of buffer as a negative control group. […] The 384-well plate was placed in a microplate reader for detection, and the slope of fluorescence intensity increase in the first 2 minutes of the enzymatic reaction was taken as the activity of the protein for subsequent calculation.

SARS-CoV-2 Delta = assay: microbe, parasite or virus in culture; assay type: cell-based; settings: Severe acute respiratory syndrome coronavirus 2, 24 h
Cathepsin L = Cathepsin L (Homo sapiens, UniProt P07711); assay: In vitro enzyme activity inhibition assay (Cathepsin L, substrate Cbz-Phe-Arg-AMC); assay type: biochemical; settings: cross-validation; FIG. 2A
Sequence of Cathepsin L (P07711 114-333): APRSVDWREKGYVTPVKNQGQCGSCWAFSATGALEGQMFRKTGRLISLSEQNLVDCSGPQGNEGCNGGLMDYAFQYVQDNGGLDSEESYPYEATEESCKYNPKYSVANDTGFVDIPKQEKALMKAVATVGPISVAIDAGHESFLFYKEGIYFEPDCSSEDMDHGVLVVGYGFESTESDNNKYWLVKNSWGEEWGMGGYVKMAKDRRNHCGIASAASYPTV
Protocol: as §1

Sequence of TMPRSS2 (O15393 whole entry): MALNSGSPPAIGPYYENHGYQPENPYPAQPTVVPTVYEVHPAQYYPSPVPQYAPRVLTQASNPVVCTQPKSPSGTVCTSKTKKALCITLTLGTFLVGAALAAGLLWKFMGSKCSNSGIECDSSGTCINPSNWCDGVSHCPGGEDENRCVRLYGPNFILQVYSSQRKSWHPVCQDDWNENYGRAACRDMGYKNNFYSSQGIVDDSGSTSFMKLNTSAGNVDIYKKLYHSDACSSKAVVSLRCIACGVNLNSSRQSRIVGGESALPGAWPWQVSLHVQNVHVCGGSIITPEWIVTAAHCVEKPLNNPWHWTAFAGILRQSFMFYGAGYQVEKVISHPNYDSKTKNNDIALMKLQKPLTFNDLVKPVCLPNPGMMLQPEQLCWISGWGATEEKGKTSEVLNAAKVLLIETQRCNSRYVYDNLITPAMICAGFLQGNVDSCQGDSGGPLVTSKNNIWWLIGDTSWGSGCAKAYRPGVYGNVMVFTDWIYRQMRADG

SMILES | inhibitory activity against TMPRSS2 (TMPRSS2) | EC50 (SARS-CoV-2 Delta; […], combination at a molar ratio of 1:1, FIG. 3) [nM] | inhibitory activity against Cathepsin L (Cathepsin L) | EC50 (SARS-CoV-2 Delta) [nM]
CN1CCN(C(=O)N[C@@H](Cc2ccccc2)C(=O)N[C@H](/C=C/S(=O)(=O)c2ccccc2)CCc2ccccc2)CC1 [K777] | no inhibitory activity | 660 | – | –
N=C(N)Nc1ccc(C(=O)Oc2ccc3cc(C(=N)N)ccc3c2)cc1 [Nafamostat] | – | – | no inhibitory activity | 20
